Data as given in patent US11439633B2, “Tetrahydroquinoline derivatives as P2X7 receptor antagonists” (RaQualia Pharma Inc., priority 2017, dated 2022).

Each compound was assayed against rat P2X7 (Rattus norvegicus (Rat), UniProt Q64663) (assay: Rat P2X7 functional assay (Ca2+ influx, Fluo-4, FDSS, BzATP activation)). Details: HEK293 cells stably expressing rat P2X7; BzATP final 10 microM; read-out: Antagonistic activities with respect to the rat P2X7 receptor (IC50).
Assay type: cell-based
Experimental: Rat P2X7 Functional Assay
(§1) The functional activity of compounds was determined by measuring changes in intracellular calcium concentration using a Ca^2+-sensitive fluorescent dye, Fluo-4 (Molecular Probes). The changes in fluorescent signal were monitored by the cell imaging technology by Hamamatsu Photonics's Functional Drug Screening System (FDSS). Increases in intracellular Ca^2+ concentration were readily detected upon activation with BzATP.
(§2) HEK293 cells stably expressing rat P2X7 (GenBank accession number NM_019256) were grown in Corning CellBIND cell culture flasks, in a 5% CO2 humidified incubator to about 80% confluence. Media composition consisted of Dulbecco's Modified Eagle Medium (high glucose), 10% fetal bovine serum ([…]), 100 units/microL Penicillin, 100 microg/mL Streptomycin and 250 microg/mL Geneticine.
1. […]
7. Measure activity by FDSS as follows: • Set the assay plate on the stacker of FDSS. • Start the detection of fluorescence intensity at 540 nm by 480 nm exicitation. • After 30 seconds, add 20 microL of assay buffer containing 30 microM BzATP (final 10 microM).
IC50 values for compounds of the present invention were determined from 7-point dose-response studies. […] Finally, the IC50 values are calculated with the best-fit dose curve determined by XLfit (ID Business Solutions Ltd.).

Sequence of rat P2X7 (Q64663 whole entry): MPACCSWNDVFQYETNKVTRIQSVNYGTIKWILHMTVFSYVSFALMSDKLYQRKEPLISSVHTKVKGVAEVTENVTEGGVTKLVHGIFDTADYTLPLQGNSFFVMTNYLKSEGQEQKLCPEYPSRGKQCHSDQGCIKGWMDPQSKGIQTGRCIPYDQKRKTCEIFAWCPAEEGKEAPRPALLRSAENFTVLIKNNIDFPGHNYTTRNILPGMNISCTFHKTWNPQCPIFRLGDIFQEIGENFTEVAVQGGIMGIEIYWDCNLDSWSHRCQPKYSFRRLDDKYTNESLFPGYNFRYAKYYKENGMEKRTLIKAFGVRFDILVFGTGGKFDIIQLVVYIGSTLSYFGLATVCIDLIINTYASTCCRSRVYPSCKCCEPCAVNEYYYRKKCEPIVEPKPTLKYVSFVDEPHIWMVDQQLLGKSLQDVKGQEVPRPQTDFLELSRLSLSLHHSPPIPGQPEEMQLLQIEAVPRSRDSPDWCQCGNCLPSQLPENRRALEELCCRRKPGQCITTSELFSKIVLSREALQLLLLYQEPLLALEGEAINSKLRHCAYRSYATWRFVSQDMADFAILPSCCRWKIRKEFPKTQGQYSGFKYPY

IC50	Structure (SMILES)
< 1000 nM	Cc1cc(Cl)cc(Cl)c1CNC(=O)[C@@H]1CC[C@H](O)c2ncccc21 [Example 64, (5R,8S)-N-(2,4-dichloro-6-methylbenzyl)-8-hydroxy-5,6,7,8-tetrahydroquinoline-5-carboxamide]

These compounds were tested against human P2X7 (Homo sapiens (Human), UniProt Q99572) (assay: Human P2X7 functional assay (Ca2+ influx, Fluo-4, FDSS, BzATP activation)). Details: antagonistic activity with respect to the human P2X7 receptor; BzATP final concentration 80 microM; 7-point dose-response.
Sequence of human P2X7 (Q99572 whole entry): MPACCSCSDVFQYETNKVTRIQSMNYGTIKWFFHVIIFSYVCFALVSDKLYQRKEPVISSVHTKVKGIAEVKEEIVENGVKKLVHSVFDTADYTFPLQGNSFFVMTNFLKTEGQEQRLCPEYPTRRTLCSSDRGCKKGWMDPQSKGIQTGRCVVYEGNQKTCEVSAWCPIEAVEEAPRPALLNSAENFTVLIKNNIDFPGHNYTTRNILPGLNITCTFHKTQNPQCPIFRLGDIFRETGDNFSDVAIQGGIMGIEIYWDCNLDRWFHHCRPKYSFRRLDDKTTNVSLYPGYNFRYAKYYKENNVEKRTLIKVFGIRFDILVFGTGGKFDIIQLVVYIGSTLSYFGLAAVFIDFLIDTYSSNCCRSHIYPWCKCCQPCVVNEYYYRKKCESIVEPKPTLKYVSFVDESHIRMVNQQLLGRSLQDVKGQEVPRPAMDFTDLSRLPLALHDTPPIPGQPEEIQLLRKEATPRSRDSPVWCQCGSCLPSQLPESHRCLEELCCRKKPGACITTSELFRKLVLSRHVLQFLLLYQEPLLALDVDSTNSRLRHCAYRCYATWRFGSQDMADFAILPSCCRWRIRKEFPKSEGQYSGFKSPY
Assay type: cell-based
Experimental: Human P2X7 Functional Assay
as §1
as §2, with “human” for “rat”, “BC011913) carrying a C-terminal FLAG tag” for “NM_019256)”, “T225” for “Corning CellBIND cell culture”, “units/[…]” for “units/microL”
1. Plate-out HEK293-human P2X7 cells (40 microL medium containing 10,000 cells per well) into poly-D-lysine coated 384-well plates (Corning) at 24 h prior to assay.
2. Incubate at 37° C. in 5% CO2.
3. Incubate the plate at 37° C. in 5% CO2 for 1 h.
5. Test compounds were prepared at 100× the test concentration in DMSO by serial dilution with Biomek-FX liquid handling instrument. 33× diluted compound solutions in assay buffer were prepared in intermediate compound plate with Biomek-NX liquid handling instrument. A further 3× dilution occurred in below steps 6 and 7.
6. Add 20 microL of 33× diluted compound solutions into each well and leave the plate for 10 min under the dark at room temperature.
7. Measure activity by FDSS as follows: • Set the assay plate on the stacker of FDSS. • Start the detection of fluorescence intensity at 540 nm by 480 nm exicitation. • After 30 seconds, add 20 microL of assay buffer containing 240 microM BzATP (final concentration 80 microM).
IC50 values for compounds of the present invention were determined from 7-point dose-response studies. Curves were generated using the average of duplicate wells for each data point. Finally, the IC50 values are calculated with the best-fit dose curve determined by XLfit (ID Business Solutions Ltd.).

Structure (SMILES)	IC50
O=C(NCc1c(Cl)cc(Cl)cc1CO)C1CCC(O)c2ncccc21 (stereo not drawn) [Example 9, N-(2,4-dichloro-6-(hydroxymethyl)benzyl)-8-hydroxy-5,6,7,8-tetrahydroquinoline-5-carboxamide]	< 50 nM
Cc1cc(Cl)cc(Cl)c1CNC(=O)[C@@]1(F)CC[C@@H](O)c2ncccc21 [Example 126, (5R,8R)-N-(2,4-dichloro-6-methylbenzyl)-5-fluoro-8-hydroxy-5,6,7,8-tetrahydroquinoline-5-carboxamide]	< 50 nM
Cc1cc(Cl)cc(Cl)c1CNC(=O)[C@]1(F)CC[C@H](O)c2ncccc21 [Example 127, (5S,8S)-N-(2,4-dichloro-6-methylbenzyl)-5-fluoro-8-hydroxy-5,6,7,8-tetrahydroquinoline-5-carboxamide]	< 50 nM
O=C(NCc1ccc(F)cc1C(F)(F)F)[C@]1(F)CC[C@H](O)c2ncccc21 [Example 144, (5S,8S)-5-fluoro-N-(4-fluoro-2-(trifluoromethyl)benzyl)-8-hydroxy-5,6,7,8-tetrahydroquinoline-5-carboxamide]	< 50 nM
O=C(NCc1c(F)cc(Cl)cc1Cl)[C@]1(F)CC[C@H](O)c2ncccc21 [Example 152, (5S,8S)-N-(2,4-dichloro-6-fluorobenzyl)-5-fluoro-8-hydroxy-5,6,7,8-tetrahydroquinoline-5-carboxamide]	< 50 nM
Cc1cccc(Cl)c1CNC(=O)[C@]1(F)CC[C@H](O)c2ncccc21 [Example 161, (5S,8S)-N-(2-chloro-6-methylbenzyl)-5-fluoro-8-hydroxy-5,6,7,8-tetra-hydroquinoline-5-carbox-amide]	< 50 nM
O=C(NCc1ccc(F)c(F)c1Cl)[C@]1(F)CC[C@H](O)c2ncccc21 [Example 174, (5S,8S)-N-(2-chloro-3,4-difluorobenzyl)-5-fluoro-8-hydroxy-5,6,7,8-tetra-hydroquinoline-5-carboxamide]	< 50 nM

Now from value to compound:

IC50	Structure (SMILES)
< 50 nM	O=C(NCc1cccc(C(F)(F)F)c1F)[C@]1(F)CC[C@H](O)c2ncccc21 [Example 175, (5S,8S)-5-fluoro-N-(2-fluoro-3-(trifluoromethyl)benzyl)-8-hydroxy-5,6,7,8-tetrahydroquinoline-5-carboxamide]
< 50 nM	O=C(NCc1cc(Br)ccc1Cl)[C@]1(F)CC[C@H](O)c2ncccc21 [Example 181, (5S,8S)-N-(5-bromo-2-chlorobenzyl)-5-fluoro-8-hydroxy-5,6,7,8-tetra-hydroquinoline-5-carbox-amide]
< 50 nM	O=C(NCc1c(F)cccc1C(F)(F)F)[C@]1(F)CC[C@H](O)c2ncccc21 [Example 186, (5S,8S)-5-fluoro-N-(2-fluoro-6-(trifluoromethyl)benzyl)-8-hydroxy-5,6,7,8-tetrahydroquinoline-5-carboxamide]
< 50 nM	O=C(NCCc1ccc(Cl)cc1Cl)[C@]1(F)CC[C@H](O)c2ncccc21 [Example 191, (5S,8S)-N-(2,4-dichloro-phenethyl)-5-fluoro-8-hydroxy-5,6,7,8-tetrahydro-quinoline-5-carboxamide]
< 50 nM	C[C@]1(O)CC[C@@](F)(C(=O)NCc2c(F)cc(Cl)cc2Cl)c2cccnc21 [Example 265, (5S,8S)-N-(2,4-dichloro-6-fluorobenzyl)-5-fluoro-8-hydroxy-8-methyl-5,6,7,8-tetrahydroquinoline-5-carboxamide]
< 50 nM	C[C@]1(O)CC[C@@](F)(C(=O)NCc2c(F)cc(F)cc2Cl)c2cccnc21 [Example 266, (5S,8S)-N-(2-chloro-4,6-difluorobenzyl)-5-fluoro-8-hydroxy-8-methyl-5,6,7,8-tetrahydroquinoline-5-carboxamide]
< 50 nM	C[C@]1(O)CC[C@@](F)(C(=O)NCc2ccc(Cl)c(F)c2F)c2cccnc21 [Example 267, (5S,8S)-N-(4-chloro-2,3-difluorobenzyl)-5-fluoro-8-hydroxy-8-methyl-5,6,7,8-tetrahydroquinoline-5-carboxamide]
< 50 nM	C[C@]1(O)CC[C@@](F)(C(=O)NC2CC2c2ccc(Cl)cc2Cl)c2cccnc21 (stereo partly drawn) [Example 273, (5S,8S)-N-((trans)-2-(2,4-dichlorophenyl)cyclopropyl)-5-fluoro-8-hydroxy-8-methyl-5,6,7,8-tetrahydro-quinoline-5-carboxamide]
< 50 nM	CO[C@H]1CC[C@@](F)(C(=O)NCc2c(F)cc(Cl)cc2Cl)c2cccnc21 [Example 335, (5S,8S)-N-(2,4-dichloro-6-fluorobenzyl)-5-fluoro-8-methoxy-5,6,7,8-tetrahydroquinoline-5-carboxamide]
< 50 nM	CS(=O)(=O)C1CC[C@@](F)(C(=O)NCc2ccc(Cl)cc2Cl)c2cccnc21 (stereo partly drawn) [Example 350, (5S)-N-(2,4-dichlorobenzyl)-5-fluoro-8-(methylsulfonyl)-5,6,7,8-tetrahydroquinoline-5-carboxamide]
